Target: IKZF2 (Homo sapiens (Human), UniProt Q96SW2+Q9UKS7)
Assay: IKZF2 HiBiT Assay (Jurkat-IKZF2-HiBiT cell line)
Type: cell-based
Conditions: Jurkat-IKZF2-HiBiT cells, 24 hours; for DC50: read-out: HiBit assay degradation analysis DC50; for Dmax: read-out: HiBit assay degradation analysis Dmax
How it was run: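 Jurkat cells carrying HiBiT-tagged IKZF2 were exposed to serially diluted compound for 24 h at 37 °C. Remaining IKZF2 was measured by Nano-Glo HiBiT lytic luminescence after 10-20 min at room temperature. Signal was normalized to DMSO, and IC50 came from a four-parameter variable-slope fit.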

Chain of IKZF2 (Q9UKS7 whole entry): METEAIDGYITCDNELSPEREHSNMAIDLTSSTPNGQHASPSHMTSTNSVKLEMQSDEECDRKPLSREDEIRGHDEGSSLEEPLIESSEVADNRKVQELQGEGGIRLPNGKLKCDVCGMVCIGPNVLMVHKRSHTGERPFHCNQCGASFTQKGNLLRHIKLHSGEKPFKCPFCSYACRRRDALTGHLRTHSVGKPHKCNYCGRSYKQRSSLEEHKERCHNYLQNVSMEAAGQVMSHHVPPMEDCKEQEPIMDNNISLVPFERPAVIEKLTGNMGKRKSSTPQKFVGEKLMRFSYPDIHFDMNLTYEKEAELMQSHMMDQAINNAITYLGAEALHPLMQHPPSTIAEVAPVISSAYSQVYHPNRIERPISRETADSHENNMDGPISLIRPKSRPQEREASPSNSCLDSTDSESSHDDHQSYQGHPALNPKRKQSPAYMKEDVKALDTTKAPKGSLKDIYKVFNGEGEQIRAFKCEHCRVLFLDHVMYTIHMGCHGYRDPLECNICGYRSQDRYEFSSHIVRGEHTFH
Chain of IKZF2 (Q96SW2 whole entry): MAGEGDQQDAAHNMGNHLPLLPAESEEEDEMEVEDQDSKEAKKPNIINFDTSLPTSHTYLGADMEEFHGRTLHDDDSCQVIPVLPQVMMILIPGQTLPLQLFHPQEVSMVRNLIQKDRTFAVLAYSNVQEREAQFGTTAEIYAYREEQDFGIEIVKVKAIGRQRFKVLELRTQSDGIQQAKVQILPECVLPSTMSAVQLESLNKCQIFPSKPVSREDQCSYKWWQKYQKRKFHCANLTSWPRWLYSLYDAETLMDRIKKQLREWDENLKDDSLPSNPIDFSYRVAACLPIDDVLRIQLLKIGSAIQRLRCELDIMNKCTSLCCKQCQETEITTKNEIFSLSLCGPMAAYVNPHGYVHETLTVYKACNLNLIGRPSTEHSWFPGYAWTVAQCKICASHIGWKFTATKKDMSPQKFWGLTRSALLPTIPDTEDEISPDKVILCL
Chain of IKZF2 (Q16531 whole entry partner): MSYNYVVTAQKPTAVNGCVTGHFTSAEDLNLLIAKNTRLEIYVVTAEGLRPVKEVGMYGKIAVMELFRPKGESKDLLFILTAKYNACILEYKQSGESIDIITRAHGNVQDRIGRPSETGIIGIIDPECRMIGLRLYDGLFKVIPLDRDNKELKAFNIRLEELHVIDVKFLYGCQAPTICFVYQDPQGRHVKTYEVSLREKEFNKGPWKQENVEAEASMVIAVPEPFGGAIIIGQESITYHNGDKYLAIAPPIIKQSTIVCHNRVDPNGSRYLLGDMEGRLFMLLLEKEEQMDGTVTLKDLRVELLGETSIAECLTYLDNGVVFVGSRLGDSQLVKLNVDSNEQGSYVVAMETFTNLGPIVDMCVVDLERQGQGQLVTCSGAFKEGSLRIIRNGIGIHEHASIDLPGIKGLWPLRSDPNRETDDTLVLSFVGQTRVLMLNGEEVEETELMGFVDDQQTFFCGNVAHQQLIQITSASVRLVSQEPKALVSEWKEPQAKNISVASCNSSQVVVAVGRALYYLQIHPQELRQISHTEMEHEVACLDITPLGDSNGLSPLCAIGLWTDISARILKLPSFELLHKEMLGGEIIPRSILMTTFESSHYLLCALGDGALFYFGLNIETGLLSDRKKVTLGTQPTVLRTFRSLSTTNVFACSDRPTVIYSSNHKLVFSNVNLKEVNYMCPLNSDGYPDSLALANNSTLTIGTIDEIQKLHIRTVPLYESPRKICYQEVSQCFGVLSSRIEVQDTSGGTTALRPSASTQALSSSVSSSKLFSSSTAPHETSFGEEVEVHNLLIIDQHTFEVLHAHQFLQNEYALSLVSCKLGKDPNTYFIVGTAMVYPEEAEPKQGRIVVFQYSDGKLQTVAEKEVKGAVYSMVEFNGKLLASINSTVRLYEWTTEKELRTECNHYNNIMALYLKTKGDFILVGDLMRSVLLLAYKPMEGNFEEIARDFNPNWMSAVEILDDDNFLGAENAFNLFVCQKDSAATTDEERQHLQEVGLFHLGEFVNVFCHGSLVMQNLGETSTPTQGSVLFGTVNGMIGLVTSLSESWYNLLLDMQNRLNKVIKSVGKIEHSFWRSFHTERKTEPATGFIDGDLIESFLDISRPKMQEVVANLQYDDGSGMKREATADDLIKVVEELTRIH

Structure (SMILES) | DC50 [nM] | Dmax [%]
Cn1ccc(-c2cccc(CN3CCC4(CC3)COc3c4ccc4c3CN([C@H]3CCC(=O)NC3=O)C4=O)c2)n1 [Compound A267, (S)-3-(1′-(3-(1-methyl-1H-pyrazol-3-yl)benzyl)-6-oxo-6,8-dihydro-2H,7H-spiro[furo[2,3-e]isoindole-3,4′-piperidin]-7-yl)piperidine-2,6-dione] | < 50 | 60 to 80
O=C1CCC(N2Cc3c(ccc4c3OCC43CCN(Cc4cccc(Oc5ccccn5)c4)CC3)C2=O)C(=O)N1 (centres unmarked) [Compound A101, 3-(6-oxo-1′-(3-(pyridin-2-yloxy)benzyl)-6,8-dihydro-2H,7H-spiro[furo[2,3-e]isoindole-3,4′-piperidin]-7-yl)piperidine-2,6-dione] | < 50 | 60 to 80
COCCn1cc(-c2cccc(CN3CCC4(CC3)COc3c4ccc4c3CN([C@H]3CCC(=O)NC3=O)C4=O)c2)cn1 [Compound A286, (S)-3-(1′-(3-(1-(2-methoxyethyl)-1H-pyrazol-4-yl)benzyl)-6-oxo-6,8-dihydro-2H,7H-spiro[furo[2,3-e]isoindole-3,4′-piperidin]-7-yl)piperidine-2,6-dione] | 50 to 200 | 60 to 80
O=C1CCC(N2Cc3c(ccc4c3OCC43CCN(Cc4ccn(-c5ccccc5Cl)n4)CC3)C2=O)C(=O)N1 (centres unmarked) [Compound A321, 3-(1′-((1-(2-chlorophenyl)-1H-pyrazol-3-yl)methyl)-6-oxo-6,8-dihydro-2H,7H-spiro[furo[2,3-e]isoindole-3,4′-piperidin]-7-yl)piperidine-2,6-dione] | > 500 | < 40
O=C1CCC(N2Cc3c(ccc4c3OCC43CCN(Cc4nncn4-c4ccccc4)CC3)C2=O)C(=O)N1 (centres unmarked) [Compound A253, 3-(6-oxo-1′-((4-phenyl-4H-1,2,4-triazol-3-yl)methyl)-6,8-dihydro-2H,7H-spiro[furo[2,3-e]isoindole-3,4′-piperidin]-7-yl)piperidine-2,6-dione] | > 500 | < 40
O=C1CCC(N2Cc3c(ccc4c3OCC43CCN(Cc4cccc5ccoc45)CC3)C2=O)C(=O)N1 (centres unmarked) [Compound A115, 3-(1′-(benzofuran-7-ylmethyl)-6-oxo-6,8-dihydro-2H,7H-spiro[furo[2,3-e]isoindole-3,4′-piperidin]-7-yl)piperidine-2,6-dione] | 50 to 200 | 60 to 80
O=C1CCC(N2Cc3c(ccc4c3OCC43CCN(Cc4nc(-c5ccccc5)cs4)CC3)C2=O)C(=O)N1 (centres unmarked) [Compound A85, 3-(6-oxo-1′-((4-phenylthiazol-2-yl)methyl)-6,8-dihydro-2H,7H-spiro[furo[2,3-e]isoindole-3,4′-piperidin]-7-yl)piperidine-2,6-dione] | > 500 | < 40
O=C1CC[C@H](N2Cc3c(ccc4c3OCC43CCN(Cc4cc(F)cc(-c5cnn(C6COC6)c5)c4)CC3)C2=O)C(=O)N1 [Compound A276, (S)-3-(1′-(3-fluoro-5-(1-(oxetan-3-yl)-1H-pyrazol-4-yl)benzyl)-6-oxo-6,8-dihydro-2H,7H-spiro[furo[2,3-e]isoindole-3,4′-piperidin]-7-yl)piperidine-2,6-dione] | < 50 | 40 to 60
CC(C)(O)Cn1cc(-c2cccc(CN3CCC4(CC3)COc3c4ccc4c3CN([C@H]3CCC(=O)NC3=O)C4=O)c2)cn1 [Compound A292, (S)-3-(1′-(3-(1-(2-hydroxy-2-methylpropyl)-1H-pyrazol-4-yl)benzyl)-6-oxo-6,8-dihydro-2H,7H-spiro[furo[2,3-e]isoindole-3,4′-piperidin]-7-yl)piperidine-2,6-dione] | < 50 | 60 to 80
Cc1cc(CN2CCC3(CC2)COc2c3ccc3c2CN([C@H]2CCC(=O)NC2=O)C3=O)cc(-c2cnn(C3COC3)c2)c1 [Compound A279, (S)-3-(1′-(3-methyl-5-(1-(oxetan-3-yl)-1H-pyrazol-4-yl)benzyl)-6-oxo-6,8-dihydro-2H,7H-spiro[furo[2,3-e]isoindole-3,4′-piperidin]-7-yl)piperidine-2,6-dione] | < 50 | 60 to 80
CN(C(=O)c1cccc(CN2CCC3(CC2)COc2c3ccc3c2CN(C2CCC(=O)NC2=O)C3=O)c1)c1cccc(F)c1 (centres unmarked) [Compound A166, 3-((7-(2,6-dioxopiperidin-3-yl)-6-oxo-7,8-dihydro-2H,6H-spiro[furo[2,3-e]isoindole-3,4′-piperidin]-1′-yl)methyl)-N-(3-fluorophenyl)-N-methylbenzamide] | 50 to 200 | 40 to 60
O=C1CCC(N2Cc3c(ccc4c3OCC43CCN(CC4CCCc5ccccc54)CC3)C2=O)C(=O)N1 (centres unmarked) [Compound A21, 3-(6-oxo-1′-((1,2,3,4-tetrahydronaphthalen-1-yl)methyl)-6,8-dihydro-2H,7H-spiro[furo[2,3-e]isoindole-3,4′-piperidin]-7-yl)piperidine-2,6-dione] | > 500 | 60 to 80
O=C1CCC(N2Cc3c(ccc4c3OCC43CCN(Cc4cccc(Br)c4)CC3)C2=O)C(=O)N1 (centres unmarked) [Compound A91, 3-(1′-(3-bromobenzyl)-6-oxo-6,8-dihydro-2H,7H-spiro[furo[2,3-e]isoindole-3,4′-piperidin]-7-yl)piperidine-2,6-dione] | < 50 | 60 to 80
O=C1CC[C@H](N2Cc3c(ccc4c3OCC43CCN(Cc4cccc(-c5cnn(C6CC6)c5)c4)CC3)C2=O)C(=O)N1 [Compound A268, (S)-3-(1′-(3-(1-cyclopropyl-1H-pyrazol-4-yl)benzyl)-6-oxo-6,8-dihydro-2H,7H-spiro[furo[2,3-e]isoindole-3,4′-piperidin]-7-yl)piperidine-2,6-dione] | < 50 | 60 to 80
O=C1CCC(N2Cc3c(ccc4c3OCC43CCN(CC4CCOCC4)CC3)C2=O)C(=O)N1 (centres unmarked) [Compound A20, 3-(6-oxo-1′-((tetrahydro-2H-pyran-4-yl)methyl)-6,8-dihydro-2H,7H-spiro[furo[2,3-e]isoindole-3,4′-piperidin]-7-yl)piperidine-2,6-dione] | > 500 | < 40
O=C1CCC(N2Cc3c(ccc4c3OCC43CCN(Cc4ccccc4Cn4cccn4)CC3)C2=O)C(=O)N1 (centres unmarked) [Compound A155, 3-(1′-(2-((1H-pyrazol-1-yl)methyl)benzyl)-6-oxo-6,8-dihydro-2H,7H-spiro[furo[2,3-e]isoindole-3,4′-piperidin]-7-yl)piperidine-2,6-dione] | > 500 | 40 to 60
O=C1CCC(N2Cc3c(ccc4c3OCC43CCN(Cc4ncccn4)CC3)C2=O)C(=O)N1 (centres unmarked) [Compound A206, 3-(6-oxo-1′-(pyrimidin-2-ylmethyl)-6,8-dihydro-2H,7H-spiro[furo[2,3-e]isoindole-3,4′-piperidin]-7-yl)piperidine-2,6-dione] | > 500 | < 40
Cc1nn(C)cc1-c1cccc(CN2CCC3(CC2)COc2c3ccc3c2CN([C@H]2CCC(=O)NC2=O)C3=O)c1 [Compound A283, (S)-3-(1′-(3-(1,3-dimethyl-1H-pyrazol-4-yl)benzyl)-6-oxo-6,8-dihydro-2H,7H-spiro[furo[2,3-e]isoindole-3,4′-piperidin]-7-yl)piperidine-2,6-dione] | 50 to 200 | 60 to 80
Cn1cc(-c2cccc(CN3CCC4(CC3)OCc3c4ccc4c3CN(C3CCC(=O)NC3=O)C4=O)c2)cn1 (centres unmarked) [Compound A259, 3-(1′-(3-(1-methyl-1H-pyrazol-4-yl)benzyl)-6-oxo-6,8-dihydrospiro[furo[3,4-e]isoindoline-3,4′-piperidin]-7(1H)-yl)piperidine-2,6-dione] | > 500 | 40 to 60
O=C1CCC(N2Cc3c(ccc4c3OCC43CCN(Cc4ccc5nccnc5c4)CC3)C2=O)C(=O)N1 (centres unmarked) [Compound A48, 3-(6-oxo-1′-(quinoxalin-6-ylmethyl)-6,8-dihydro-2H,7H-spiro[furo[2,3-e]isoindole-3,4′-piperidin]-7-yl)piperidine-2,6-dione] | > 500 | < 40
CC(C)c1ccc(CN2CCC3(CC2)COc2c3ccc3c2CN(C2CCC(=O)NC2=O)C3=O)cc1 (centres unmarked) [Compound A191, 3-(1′-(4-isopropylbenzyl)-6-oxo-6,8-dihydro-2H,7H-spiro[furo[2,3-e]isoindole-3,4′-piperidin]-7-yl)piperidine-2,6-dione] | > 500 | < 40
O=C1CCC(N2Cc3c(ccc4c3OCC43CCN(Cc4nccc5c4CCCC5)CC3)C2=O)C(=O)N1 (centres unmarked) [Compound A324, 3-(6-oxo-1′-((5,6,7,8-tetrahydroisoquinolin-1-yl)methyl)-6,8-dihydro-2H,7H-spiro[furo [2,3-e]isoindole-3,4′-piperidin]-7-yl)piperidine-2,6-dione] | > 500 | 40 to 60
Cn1cnc2ccc(CN3CCC4(CC3)COc3c4ccc4c3CN(C3CCC(=O)NC3=O)C4=O)cc21 (centres unmarked) [Compound A72, 3-(1′-((1-methyl-1H-benzo[d]imidazol-6-yl)methyl)-6-oxo-6,8-dihydro-2H,7H-spiro[furo[2,3-e]isoindole-3,4′-piperidin]-7-yl)piperidine-2,6-dione] | > 500 | 40 to 60
O=C1CCC(N2Cc3c(ccc4c3OCC43CCN(Cc4cc(C(F)(F)F)cc5[nH]ccc45)CC3)C2=O)C(=O)N1 (centres unmarked) [Compound A114, 3-(6-oxo-1′-((6-(trifluoromethyl)-1H-indol-4-yl)methyl)-6,8-dihydro-2H,7H-spiro[furo[2,3-e]isoindole-3,4′-piperidin]-7-yl)piperidine-2,6-dione] | 50 to 200 | 60 to 80
CO[C@H]1C[C@H](n2cc(-c3cccc(CN4CCC5(CC4)COc4c5ccc5c4CN([C@H]4CCC(=O)NC4=O)C5=O)c3)cn2)C1 [Compound A297, (S)-3-(1′-(3-(1-((1r,3r)-3-methoxycyclobutyl)-1H-pyrazol-4-yl)benzyl)-6-oxo-6,8-dihydro-2H,7H-spiro[furo[2,3-e]isoindole-3,4′-piperidin]-7-yl)piperidine-2,6-dione] | < 50 | 60 to 80

Reference: patent US20250215012A1, “IKZF2 DEGRADERS AND USES THEREOF” (REGENTS OF THE UNIVERSITY OF MICHIGAN, priority 2022, published 2025)
